Assay: xn = mol fraction of the nth substance listed
Details: 100 kPa

CC[n+]1ccn(CCOC)c1.N#C[S-] + CCO
viscosity [mPa·s]
Details | x1 = 0.1 | x1 = 0.1999 | x1 = 0.3002 | x1 = 0.3995 | x1 = 0.5001 | x1 = 0.6 | x1 = 0.7 | x1 = 0.797 | x1 = 0.8964 | x1 = 1
288.15 K | 2.39 | 3.97 | 6.39 | 10.15 | 15.11 | 24.1 | 33.1 | 53.1 | 70.8 | 93.1
293.15 K | – | 3.53 | 5.59 | – | 12.79 | – | 27.1 | – | 55.6 | 70.8
298.15 K | 1.95 | 3.16 | – | 7.64 | 10.96 | 17.44 | 22.7 | 34.3 | 44.3 | 55.8
303.15 K | 1.77 | 2.85 | – | 6.7 | 9.52 | 14.4 | 19.4 | 28.2 | – | –
308.15 K | 1.613 | – | 3.97 | 5.93 | 8.32 | 12.12 | – | – | – | –
313.15 K | 1.476 | 2.34 | 3.58 | – | 7.34 | 10.4 | 14.37 | – | 24.7 | 29.7
318.15 K | 1.355 | – | 3.25 | 4.71 | 6.51 | 9.03 | 12.25 | 17.33 | 20.9 | 24.9

CCO + CC[n+]1ccn(CCOC)c1.N#C[S-]
x2 = 0
Details | viscosity [mPa·s]
288.15 K | 1.319
293.15 K | 1.194
298.15 K | 1.085
303.15 K | 0.988
313.15 K | 0.826
318.15 K | 0.757

— a compilation of properties of binary mixtures (doi:10.1016/j.jct.2020.106320)
